Experimental data: patent publication US11179363B2, “Non-steroidal selective glucocorticoid receptor agonistic modulators (SEGRAMs) and uses thereof” (ASSOCIATION POUR LA RECHERCHE À L'IGBMC (ARI), priority 2017, dated 2021)

Columns and labels:
[1] = Blood glucose and intraperitoneal glucose tolerance test (IPGTT) after three-month treatment; format: in vivo, B6 male mice; details: three months
Protocol: B6 male mice (8-week-old) were daily subjected for three months to a subcutaneous injection of either vehicle (NaCl 0.9%), Dex, CpdX, CpdX(eA), CpdX(eB), CpdX-D3, CpdX-D3(eA) or CpdX-D3(eB) (1 mg/kg body weight, diluted in vehicle). Mice were over-night-fasted. Mouse blood glucose concentration was measured before (To) and during two hours (T120) after glucose i.p. injection ([…]).

[2] = test system: thymus, spleen, adrenal gland and kidney; assay: Organ weights (thymus, spleen, adrenal gland, kidney) after three-month treatment; format: in vivo, B6 male mice; details: s.c. 1 mg/kg daily, three months
Protocol: B6 male mice (8-week-old) were daily subjected for three months to a subcutaneous injection of either vehicle (NaCl 0.9%), Dex, CpdX, CpdX(eA), CpdX(eB), CpdX-D3, CpdX-D3(eA) or CpdX-D3(eB) (1 mg/kg body weight, diluted in vehicle). Following these treatments, four organs (thymus, spleen, adrenal gland and kidney) were harvested and weighted.

[3] = test system: dorsal skin of Balb/C mice; assay: Skin epidermis atrophy after 8-day topical treatment of dorsal skin; format: in vivo
Source text: To investigate whether, similarly to Dex, a topical administration of CpdX could result in a skin atrophy, Balb/C mice were shaved on the dorsal skin. Ethanol (vehicle), Dex, CpdX or either one of its two enantiomers CpdX(eA) or CpdX(eB), as well as the deuterated form CpdX-D3 or either one of its two enantiomers CpdX-D3(eA) or CpdX-D3(eB), were topically applied onto the dorsal skin for 8 days.
Upon completion of the treatments, RNA transcripts were extracted from dorsal skin samples and the transcripts of Kindlin-1 and REDD1 genes were analyzed by q-RT-PCR. Histological and morphometric analyses of the dorsal skin were also performed.

[4] = Body weight and body composition after three-month treatment (pDEXA); format: in vivo, B6 male mice; details: s.c. 1 mg/kg daily, 3 months
Protocol: B6 male mice (8-week-old) were daily subjected for three months to a subcutaneous injection of either vehicle (NaCl 0.9%), Dex, CpdX or CpdX-D3 (1 mg/kg body weight, diluted in vehicle. A pDEXA machine was used to determine the lean mass and fat mass. The statistical significance was calculated through Krustal-Walis test followed by a Dunn's multiple comparison test, *p<0.05; **p<0.01; ***p<0.001.

[5] = test system: adrenal glands; assay: Corticosterone synthesis and adrenal gland after three-month treatment; format: in vivo, B6 male mice; details: three months
Protocol: B6 male mice (8-week-old) were daily subjected for three months to either a subcutaneous injection of vehicle (NaCl 0.9%), Dex, CpdX, CpdX(eA), CpdX(eB), CpdX-D3, CpdX-D3(eA) or CpdX-D3(eB) (1 mg/kg body weight, diluted in vehicle).
Following this long-term treatment, blood was collected at 10 a.m. and 6 p.m. by retro-orbital puncture in lithium-heparin coated vials, and the plasmatic level of corticosterone was determined. Adrenal glands were harvested and weighted. RNA transcripts were extracted and transcripts of the Cyp11a, Cyp11b1, Cyp11b2 and HSD3β genes were analyzed by q-RT-PCR. Histological analyses of the adrenal glands were also carried out.

[6] = test system: liver; assay: Fatty liver after three-month treatment (red oil staining, q-RT-PCR, plasma cholesterol and bile acids); format: in vivo, B6 male mice; details: three months
Protocol: B6 male mice (8-week-old) were daily subjected for three months to a subcutaneous injection of either vehicle (NaCl 0.9%), Dex, CpdX, CpdX(eA), CpdX(eB), CpdX-D3, CpdX-D3(eA) or CpdX-D3(eB) (1 mg/kg body weight, diluted in vehicle). Following this treatment, blood was collected at 10 a.m. by retro-orbital puncture in lithium-heparin coated vials. The plasmatic levels of total cholesterol and bile acids were determined.
Liver samples were harvested. […] RNA transcripts were extracted from liver samples and the transcripts of fatty acid synthase (FASN) and Stearoyl-CoA desaturase 1 (SCD1) genes were analyzed by q-RT-PCR.

[7] = test system: mouse tibia cortical bone and femur trabecular bone; assay: Cortical and trabecular bone formation after three-month treatment (micro-CT, Wnt16 q-RT-PCR); format: in vivo, B6 male mice; details: s.c. 1 mg/kg daily, three months
Protocol: B6 male mice (8-week-old) were daily subjected for three months to either a subcutaneous injection of vehicle (NaCl 0.9%), Dex, CpdX, CpdX(eA), CpdX(eB), CpdX-D3, CpdX-D3(eA) or CpdX-D3(eB) (1 mg/kg body weight, diluted in NaCl 0.9%).
From each animal included in the experiments, one femur and the ipsilateral tibia were dissected and preserved in 70% ethanol for further bone microstructure analysis by micro-CT. The FX Quantum micro-CT scanner (Perkin Elmer) was used to perform measurements at the distal femur and midshaft tibia. All scans were performed with an isotropic voxel size of 10 μm, 160 μA tube current and 90 kV tube voltage.
Morphological 3D measurements were performed using the CTAn software (Bruker). Cortical bone parameters, which were measured in the tibia midshaft, included measures of the bone volume fraction as compared to the total volume, cortical thickness, total area, bone area and marrow area. […] Trabecular bone parameters were measured in the distal metaphysis of the femurs and included bone volume fraction, trabecular thickness, trabecular number and trabecular spacing. […]
The statistical significance as compared to vehicle treatment was calculated through one-way ANOVA test followed by Dunn's multiple comparison test, *p<0.05; **p<0.01; ***p<0.001; ****p<0,0001.

[8] = Blood insulin, intraperitoneal insulin tolerance test (IPITT) and liver western blot after three-month treatment; format: in vivo, B6 male mice; details: three months
Protocol: B6 male mice (8-week-old) were subjected daily for three months to a subcutaneous injection of either vehicle (NaCl 0.9%), Dex, CpdX, CpdX(eA), CpdX(eB), CpdX-D3, CpdX-D3(eA) or CpdX-D3(eB) (1 mg/kg body weight, diluted in vehicle). After three months, the blood was collected at 10 a.m. by retro-orbital puncture in lithium-heparin coated vials, and the plasmatic level of insulin was determined.
For the intraperitoneal insulin tolerance test (IPITT), mice were fasted for 6 hours before test. The blood glucose concentration was measured both before (To) and during a one-hour period after insulin i.p. injection (0.75 U/kg body weight).
Following this three-month treatment, liver samples were harvested and lysed in the RIPA buffer (20 mM Tris pH 8, 150 mM NaCl, 10% glycerol, 1% NP-40 and 2 mM EDTA). Antibodies from Cell Signaling were used to assess by Western-Blotting the relative level of p-IRS1 (S318), IRS-1, p-AKT (S473) and AKT.

[9] = biological target: T1, GR (Rattus norvegicus, UniProt P06536); details: cited from earlier work
T1 sequence (P06536 1-795): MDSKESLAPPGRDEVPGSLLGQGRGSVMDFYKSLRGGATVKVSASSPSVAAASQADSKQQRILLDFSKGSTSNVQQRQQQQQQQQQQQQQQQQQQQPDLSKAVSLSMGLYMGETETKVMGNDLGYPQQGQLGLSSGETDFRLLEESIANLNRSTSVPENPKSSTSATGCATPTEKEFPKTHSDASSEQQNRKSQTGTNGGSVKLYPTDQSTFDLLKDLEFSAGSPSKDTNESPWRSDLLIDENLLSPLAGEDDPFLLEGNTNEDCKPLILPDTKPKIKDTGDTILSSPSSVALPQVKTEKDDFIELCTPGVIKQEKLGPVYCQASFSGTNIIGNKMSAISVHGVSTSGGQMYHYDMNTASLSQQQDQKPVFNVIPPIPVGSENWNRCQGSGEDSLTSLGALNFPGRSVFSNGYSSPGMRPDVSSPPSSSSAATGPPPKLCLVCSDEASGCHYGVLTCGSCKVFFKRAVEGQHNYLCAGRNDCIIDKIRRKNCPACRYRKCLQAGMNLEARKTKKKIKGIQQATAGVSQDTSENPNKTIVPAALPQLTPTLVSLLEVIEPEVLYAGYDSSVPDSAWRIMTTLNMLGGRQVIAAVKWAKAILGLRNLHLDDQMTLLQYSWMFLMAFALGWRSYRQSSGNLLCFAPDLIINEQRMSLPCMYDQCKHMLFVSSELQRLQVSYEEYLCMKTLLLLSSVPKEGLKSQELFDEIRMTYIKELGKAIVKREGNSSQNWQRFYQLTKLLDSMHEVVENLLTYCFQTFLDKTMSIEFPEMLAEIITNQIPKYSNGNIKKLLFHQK

[10] = biological target: T2, GR (Homo sapiens, UniProt P04150); details: cited from earlier work
T2 sequence (P04150 1-777): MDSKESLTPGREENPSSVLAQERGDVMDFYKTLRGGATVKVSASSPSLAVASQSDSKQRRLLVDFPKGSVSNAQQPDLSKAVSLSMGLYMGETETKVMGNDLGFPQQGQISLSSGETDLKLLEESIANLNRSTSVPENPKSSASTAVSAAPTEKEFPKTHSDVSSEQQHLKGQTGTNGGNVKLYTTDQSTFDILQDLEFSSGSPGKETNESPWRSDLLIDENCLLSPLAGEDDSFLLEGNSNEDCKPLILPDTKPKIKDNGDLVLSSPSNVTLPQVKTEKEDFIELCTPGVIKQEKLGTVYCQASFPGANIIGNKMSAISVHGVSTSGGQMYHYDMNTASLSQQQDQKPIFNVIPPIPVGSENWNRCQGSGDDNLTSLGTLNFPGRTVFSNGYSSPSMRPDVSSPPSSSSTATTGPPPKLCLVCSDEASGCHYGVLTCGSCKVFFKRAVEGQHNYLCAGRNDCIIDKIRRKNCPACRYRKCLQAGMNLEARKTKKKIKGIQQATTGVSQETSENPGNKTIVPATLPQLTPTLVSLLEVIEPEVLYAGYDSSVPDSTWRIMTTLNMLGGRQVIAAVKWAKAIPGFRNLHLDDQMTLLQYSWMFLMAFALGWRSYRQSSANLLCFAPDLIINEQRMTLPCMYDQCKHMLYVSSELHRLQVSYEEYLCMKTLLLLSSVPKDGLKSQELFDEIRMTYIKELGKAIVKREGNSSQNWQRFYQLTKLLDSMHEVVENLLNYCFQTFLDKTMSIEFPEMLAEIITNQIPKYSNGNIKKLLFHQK

C[C@@H]1C[C@H]2[C@@H]3CCC4=CC(=O)C=C[C@]4(C)[C@@]3(F)[C@@H](O)C[C@]2(C)[C@@]1(O)C(=O)CO [Dex, Dexamethasone, reference compound]
blood glucose level after over-night fasting ([1]; s.c. 1 mg/kg daily): significantly higher | blood glucose level during two-hour IPGTT ([1]; glucose i.p. injection): significant higher | decrease of the spleen weight [2]: more than 50% | thymus apoptosis (thymus weight) [2]: no thymus was found in sixteen out of nineteen mice | decrease of the epidermal thickness (morphometric analyses) ([3]; eight-day topical treatment): 65% | skin atrophy (histological analysis) ([3]; eight-day topical treatment): severely induces a skin atrophy | transcription of the Kindlin-1 gene (nGRE) in dorsal skin ([3]; topical 1 nmole/cm^2, 8 days): strongly decreased | transcription of the REDD1 gene (+GRE) in dorsal skin ([3]; topical 1 nmole/cm^2, 8 days): significantly increased | body weight, change from baseline [4]: net loss | fat mass / fat percentage, change from baseline ([4]; pDEXA): disproportional increase | lean mass / lean percentage, change from baseline ([4]; pDEXA): decrease | cortex layers, most notably the fasciculata zone, of the adrenal glands (histology) ([5]; s.c. 1 mg/kg daily): drastically decreased | transcripts of Cyp11a, Cyp11b1 and HSD3β genes in adrenal glands (corticosterone synthesis pathway) ([5]; s.c. 1 mg/kg daily, q-RT-PCR): inhibited | glomerulosa zone of the adrenal cortex (histology) [5]: drastically decreased | transcript of the Cyp11b2 gene in adrenal glands (aldosterone synthesis pathway) ([5]; q-RT-PCR): inhibited | plasmatic corticosterone level at 6 p.m. ([5]; vs Vehicle): much lower | plasmatic corticosterone level at 10 a.m. ([5]; vs Vehicle): much lower | lipid deposition in the liver (5% red oil staining) ([6]; s.c. 1 mg/kg daily): marked lipid deposition | blood cholesterol and bile acids' levels ([6]; 10 a.m.): clear increase | transcripts of fatty acid synthase (FASN) and Stearoyl-CoA desaturase 1 (SCD1) in liver ([6]; q-RT-PCR): increase | decrease of the transcription of the WNT16 gene in tibia [7]: 50% | bone volume as compared to the total volume, tibia cortical bone ([7]; micro-CT): significantly decreased | blood insulin level (hyperinsulinemia) ([8]; s.c. 1 mg/kg daily, 10 a.m.): hyperinsulinemia | phosphorylated insulin receptor substrate 1 (p-IRS1 S318) in liver extracts (western blot) [8]: decrease | phosphorylation of protein kinase B (p-AKT S473) in liver extracts (western blot) [8]: decreased | response to insulin in IPITT ([8]; insulin i.p. 0.75 U/kg): significant impaired response to insulin

C[C@@H]1C[C@H]2[C@@H]3CCC4=CC(=O)C=C[C@]4(C)[C@@]3(F)[C@@H](O)C[C@]2(C)[C@H]1C(=O)CC#N [RU24858]
dissociation upon administration in vivo [9]: failed to confirm this dissociation | dissociated profile (transrepression vs transactivation) in vitro [10]: exhibit such an expected dissociated profile
